In the SangsterLogP compilation one finds logP data, which are given here for 13 compounds.

By logP is commonly meant the decadic logarithm of the partition coefficient of the neutral form, usually between octanol and water. A lower logP goes with a more hydrophilic compound. Take `O=C1c2c(O)cccc2C(=CNc2ccc(O)cc2)c2cccc(O)c21`: the logP was determined as 4.01.

For the compound `COc1ccc(NC=C2c3cccc(O)c3C(=O)c3c(O)cccc32)cc1OC`, the logP was found to be 4.37.

`O=C1c2c(O)cccc2C(=CNc2ccc(F)cc2)c2cccc(O)c21` had a logP of 4.64.

In the case of `O=C1c2c(O)cccc2C(=CNc2ccc3c(c2)OCO3)c2cccc(O)c21`, the logP turned out to be 4.74.

In turn, `O=C1c2c(O)cccc2C(=CNc2ccc(Cl)cc2)c2cccc(O)c21` yielded a logP of 5.06.

`O=C1c2c(O)cccc2C(=CNCc2ccccc2)c2cccc(O)c21` showed a logP of 4.23.

Compound `COc1ccc(NC=C2c3cccc(O)c3C(=O)c3c(O)cccc32)cc1` showed a logP of 4.9.

Compound `COc1ccccc1NC=C1c2cccc(O)c2C(=O)c2c(O)cccc21` returned a logP of 4.37.

For `O=C1c2c(O)cccc2C(=CNc2ccc(Br)cc2)c2cccc(O)c21`, the logP was 5.19.

With `CN(C=C1c2cccc(O)c2C(=O)c2c(O)cccc21)c1ccccc1`, the logP stood at 5.07.

Consider `CNC=C1c2cccc(O)c2C(=O)c2c(O)cccc21`, for which the logP is 3.55.

With `O=C1c2c(O)cccc2C(=CNc2ccccc2)c2cccc(O)c21`, the logP came to 4.96.

`O=C1c2c(O)cccc2C(=CNc2ccc([N+](=O)[O-])cc2)c2cccc(O)c21` had a logP of 4.7.
